Where “and” joins values, the source holds several entries; their conditions need not be identical. Equal entries are not always repeated.

For assay [1], the target named is T1, Aβ42 fibrils (Homo sapiens, UniProt P05067).
T1 construct: Beta-amyloid protein, fragment 1-42; purchased Sigma-Aldrich
The assay can be described thus: TEM assay of Aβ42 fibrils in the absence of Cu(II). It counts as biochemical. Particulars: 48 h 37 °C; for Aβ42 fibril width / Reduction of fibril width vs Aβ42 alone: TEM; for Aβ42 fibril width: CAβ42 = CL = 50 µM, Aβ42 alone 4.9 ± 0.2 nm; for Reduction of fibril width vs Aβ42 alone: 50 µM. As to the method: (§1) To perform the TEM assays, commercial Aβ42 purchased from Sigma-Aldrich was pre-treated with pure HFIP, a beta-sheet disruptor, to obtain homogeneous and monomeric Aβ42 [54]. Then, 222 µL of HFIP was added to 1 mg of Aβ42, after which the mixture was vortexed and aliquoted into Eppendorfs. The Eppendorfs were placed in a SpeedVac at 45 °C for 30 min until all HFIP was evaporated. Pre-treated Aβ42 was stored at −20 °C until use. To start the amyloid incubations, pre-treated Aβ42 was equilibrated at room temperature for 30 min. A solution of 5 mM was obtained by dissolution in DMSO and sonication for 5 min. Subsequently, 10 mM HCl was added to obtain a working Aβ42 solution of 200 µM. Stock solutions of Cu(II) and RIV–BIM compounds (4a–d, 5a,b and 5d) at 200 µM were prepared on the same day and working solutions of Aβ42, Aβ42 + Cu(II), Aβ42 + RIV–BIM and Aβ42 + Cu(II) + RIV–BIM (CAβ42 = CCu = CL = 50 µM) were prepared by diluting stock solutions in 10 mM HCl. Working solutions were incubated for 48 h at 37 °C before being analyzed by TEM. Samples were negatively stained with uranyl acetate 2% (w/v) and analyzed at 100 kv with a JEOL JEM 1400 Plus transmission electron microscope. Fibrils of Aβ42 alone were compared with Aβ42 + RIV–BIM fibrils, and fibrils of Aβ42 + Cu(II) were compared with Aβ42 + Cu(II) + RIV–BIM in order to evaluate the inhibition of the amyloid aggregation, and the widths and lengths of fibrils were measured for each sample. The ImageJ program was used to measure the fibrils (n = 200).
To perform the Aβ42 aggregation assays by TEM, fibrils were incubated using a fluorescence procedure previously described.
Amyloid fibrils remained disaggregated under the effect of the RIV–BIM compounds after 48 h of incubation. […] For each of the performed assays, fibril width was measured, and the results are graphed in Figure 5. Aβ42 fibril width in the absence of Cu(II) (Figure 5a) was 4.9 ± 0.2 nm, and it was modified in the presence of all RIV–BIM compounds: compound 4d was the only one that widened amyloid fibrils (6.7 ± 0.3 nm), while the rest of the compounds narrowed them (3.3–4.5 nm).

For assay [2], the target named is T2, Aβ42 + Cu(II) fibrils (Homo sapiens, UniProt P05067).
T2 construct: Beta-amyloid protein, fragment 1-42; purchased Sigma-Aldrich
The assay can be described thus: TEM assay of Aβ42 fibrils in the presence of Cu(II). It counts as biochemical. The note with it: 48 h 37 °C; for Aβ42 fibril width: TEM, CAβ42 = CCu = CL = 50 µM, Aβ42 + Cu(II) 6.8 ± 0.3 nm. As to the method: as §1
When fibrils were incubated in the presence of Cu(II) for 48 h (Figure 6), stronger amyloid elongated aggregation was evidenced. In fact, incubation with Cu(II) in the absence of RIV–BIM compounds (Figure 5a) presented higher aggregation than that corresponding to Aβ42 alone (Figure 5a). Based on the TEM images contained in Figure 6, compounds belonging to the linear series of hybrids (4a–4d) seem to exert minor effects on Cu(II)-induced Aβ42 aggregation according to the previous fluorescence data.
Fibril width for Aβ42 + Cu(II) + RIV–BIM incubations was also measured (Figure 5b). When Aβ42 was incubated with Cu(II) ((6.8 ± 0.3) nm), the amyloid fibrils suffered a width increase of 38.8%, in contrast to Aβ42 alone (Figure 5a).

T1 sequence (P05067 672-713 limits assumed): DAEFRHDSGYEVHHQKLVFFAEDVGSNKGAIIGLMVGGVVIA
T2 sequence (P05067 672-713 limits assumed): as above

As to `CCN(C)C(=O)Oc1ccc(CCCNC(=O)c2ccc3nc(-c4ccccc4O)[nH]c3c2)cc1` [Compound 4d, 4-(3-(2-(2-Hydroxyphenyl)-1H-benzo[d]imidazole-6-carboxamido)propyl) Phenyl Ethylmethylcarbamate], in assay [1], the “Appearance of Aβ42 fibrils in TEM images” value was “quite elongated fibrils”; the Aβ42 fibril width is 6.7 nm and 6.7 ± 0.3 nm.
In the case of `CCN(C)C(=O)Oc1cccc(CNC(=O)c2cccc3[nH]c(-c4ccccc4O)nc23)c1` [Compound 5b, 3-((2-(2-Hydroxyphenyl)-1H-benzo[d]imidazole-4-carboxamido)methyl) Phenyl Ethylmethylcarbamate], in assay [1], the “Appearance of Aβ42 fibrils in TEM images” value is reported as “shortest fibrils”; the “Reduction of fibril width vs Aβ42 alone” value is reported as 22.4%; the Aβ42 fibril width was 3.8 nm and 3.8 ± 0.1 nm. Further, in assay [2], the “Appearance of Aβ42 aggregation in TEM images” value (“Appearance of Aβ42 aggregation” for short) is recorded as “sparser amyloid aggregation” and the Aβ42 fibril width worked out at 4.1 nm.
As to `CCN(C)C(=O)Oc1cccc(CCNC(=O)c2ccc3nc(-c4ccccc4O)[nH]c3c2)c1` [Compound 4c, 3-(2-(2-(2-Hydroxyphenyl)-1H-benzo[d]imidazole-6-carboxamido)ethyl) Phenylethylmethylcarbamate], in assay [1], the “Appearance of Aβ42 fibrils in TEM images” value was “quite elongated fibrils” and the Aβ42 fibril width was 4.1 nm. Besides, the Aβ42 fibril width in assay [2] is given as 4.6 nm.
On to `CCN(C)C(=O)Oc1cccc(NC(=O)c2cccc3[nH]c(-c4ccccc4O)nc23)c1` [Compound 5a, 3-(2-(2-Hydroxyphenyl)-1H-benzo[d]imidazole-4-carboxamido)phenyl Ethylmethylcarbamate], for which the Aβ42 fibril width in assay [1] was 4.5 nm. In assay [2], the “Appearance of Aβ42 aggregation” value is “sparser amyloid aggregation”; the Aβ42 fibril width is 4.9 nm and 4.9 ± 0.2 nm.
Regarding `CCN(C)C(=O)Oc1cccc(NC(=O)c2ccc3nc(-c4ccccc4O)[nH]c3c2)c1` [Compound 4a, 3-(2-(2-Hydroxyphenyl)-1H-benzo[d]imidazole-6-carboxamido)phenyl Ethylmethylcarbamate], in assay [1], the “Appearance of Aβ42 fibrils in TEM images” value is given as “shortest fibrils” and the Aβ42 fibril width was found to be 4.1 nm. The Aβ42 fibril width in assay [2] turned out to be 4.7 nm.
As to `CCN(C)C(=O)Oc1ccc(CCCNC(=O)c2cccc3[nH]c(-c4ccccc4O)nc23)cc1` [Compound 5d, 4-(3-(2-(2-Hydroxyphenyl)-1H-benzo[d]imidazole-4-carboxamido) Propyl) Phenyl Ethyl(methyl)carbamate], in assay [1], the “Reduction of fibril width vs Aβ42 alone” value is 32.7%; the Aβ42 fibril width is 3.3 nm and 3.3 ± 0.2 nm. In assay [2], the “Appearance of Aβ42 aggregation” value was “sparser amyloid aggregation” and the Aβ42 fibril width amounted to 3.9 nm.
On to `CCN(C)C(=O)Oc1cccc(CNC(=O)c2ccc3nc(-c4ccccc4O)[nH]c3c2)c1` [Compound 4b, 3-((2-(2-Hydroxyphenyl)-1H-benzo[d]imidazole-6-carboxamido)methyl) Phenyl Ethylmethylcarbamate], for which, in assay [1], the “Appearance of Aβ42 fibrils in TEM images” value is “shortest fibrils” and the Aβ42 fibril width was determined as 4.1 nm. Besides, the Aβ42 fibril width in assay [2] amounted to 4.8 nm.

The values above are taken from publication PMC9313321 (Biomedicines, 2022).
